Measured values reported in US20020028938A1, “Prostaglandin endoperoxide H synthase biosynthesis inhibitors” (priority 1997, published 2002).

Experiments:
[1] = test system: air pouch prostaglandin biosynthesis (Cox-2); experiment: Carrageenan induced air pouch prostaglandin biosynthesis model (CAP); assay type: in vivo, rat; conditions: 3 mpk, rat; for inhibition in vivo at 3 mg/kg: 4 h, read-out: CAP % Inhib. @ 3 mpk
Description: To compare the mean responses of the treatment groups, analysis of variance was applied. Percent inhibition values were determined by comparing the individual treatment mean values to the mean of the control group. Linear regression was used to estimate IC50's/ED50's in appropriate assays.
Carrageenan induced air pouch prostaglandin biosynthesis model (CAP) Air pouches are formed in the backs of male Sprague Dawley rats by injecting 20 mL of sterile air on day 0. Three days later the pouch was reinflated with an additional 10 mL of sterile air. On day 7, 1 mL of saline containing 0.2 % lambda carrageenan (Sigma Chemical Co.) is injected into the pouch to induce the inflammatory reaction that is characterized by the release of prostaglandins. Test compounds are dosed at 0.1 to 10 mg/kg 30 minutes prior to carrageenan. Four hours after the carrageenan injection the pouch is lavaged and levels of prostaglandins are determined by enzyme immuno-assay using commercially available kits. […] Values for Cox-2 inhibition that are parenthetical indicate ED50 values.

[2] = target: T1, recombinant human Cox-1 (r-hu Cox1) (Homo sapiens, UniProt P23219); experiment: Recombinant human PGHS-1 enzyme assay (RHUCX1); assay type: biochemical; conditions: for inhibition at 100 µM / inhibition at 1 µM / inhibition at 10 µM: read-out: RHUCX1 % Inh. at Dose; for IC50: read-out: RHUCX1 IC50 (parenthetical value)
T1 construct: made in house; host or cells: baculovirus/Sf9 insect cells (microsomes)
T1 sequence (P23219 24-599): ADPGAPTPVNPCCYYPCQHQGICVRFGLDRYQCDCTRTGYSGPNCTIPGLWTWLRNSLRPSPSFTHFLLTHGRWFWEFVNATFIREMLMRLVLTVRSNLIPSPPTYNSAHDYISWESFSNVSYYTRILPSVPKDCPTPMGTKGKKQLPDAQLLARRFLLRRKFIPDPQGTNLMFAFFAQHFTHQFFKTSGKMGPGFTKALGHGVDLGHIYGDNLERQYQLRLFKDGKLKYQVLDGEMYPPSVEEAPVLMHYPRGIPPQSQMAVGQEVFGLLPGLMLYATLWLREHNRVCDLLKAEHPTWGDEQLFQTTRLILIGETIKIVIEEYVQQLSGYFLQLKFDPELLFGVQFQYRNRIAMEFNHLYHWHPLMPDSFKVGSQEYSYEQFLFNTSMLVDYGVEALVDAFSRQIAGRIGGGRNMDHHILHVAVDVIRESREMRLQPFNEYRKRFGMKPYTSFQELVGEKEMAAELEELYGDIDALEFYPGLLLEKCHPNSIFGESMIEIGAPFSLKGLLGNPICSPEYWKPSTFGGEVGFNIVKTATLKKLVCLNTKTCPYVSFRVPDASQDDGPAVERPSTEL
Method in brief: (§1)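 Recombinant enzyme reaction ran 2.5 minutes at room temperature, then was quenched with HCl and neutralized with NaOH. PGE2 formed with and without drug was quantified by EIA against standards in the same milieu. Percent inhibition versus control mean; IC50 by linear regression.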

[3] = target: T2, Human Whole Platelet Cyclooxygenase-1 (Homo sapiens, UniProt P23219); experiment: Human Whole Platelet Cyclooxygenase-1 assay (HWPX); assay type: cell-based; conditions: for IC50: read-out: HWPX IC50 (parenthetical value)
T2 construct: from tissue; host or cells: human blood: isolated platelets (A4) or heparinised whole blood (A9)
T2 sequence (P23219 24-599): as above
Description: Blood from normal healthy volunteers is collected into tubes containing ACD (acid citrate dextrose) as the anticoagulant. This blood is centrifuged at 175×g to prepare platelet rich plasma. The platelet rich plasma is then centrifuged at 100×g to pellet the white blood cells, leaving the platelets in the supernatant. The supernatant is layered on a cushion of 0.7 mL of 10% bovine serum albumin in Tyrodes solution (Gibco; Grand Island, N.Y.) and then centrifuged at 1000×g. The resulting supernatant from this centrifuigation is then removed and 11 mL of Tyrodes solution is added to the remaining pellet of platelets. The platelets are then aliquoted at 120 μl into a 96 well plate. Experimental compounds are added and allowed to pre-incubate for 10 minutes. At the end of this pre-incubation period, the calcium ionophore A23187 is added to a final concentration of 8.8 μM and the incubation is continued for ten minutes. The reaction is stopped by adding cold 6 mM EDTA, the incubation mixture is centrifuged at 220×g, and the supernatants are then analyzed for thromboxane using a commercial kit from Cayman Chemical (Ann Arbor, Mich.

[4] = target: T3, recombinant human Cox-2 (r-hu Cox-2) (Homo sapiens, UniProt P35354); experiment: Recombinant human PGHS-2 enzyme assay (RHUCX2); assay type: biochemical; conditions: for IC50: read-out: RHUCX2 IC50 (parenthetical value)
T3 construct: made in house; host or cells: baculovirus/Sf9 insect cells (microsomes)
T3 sequence (P35354 18-604): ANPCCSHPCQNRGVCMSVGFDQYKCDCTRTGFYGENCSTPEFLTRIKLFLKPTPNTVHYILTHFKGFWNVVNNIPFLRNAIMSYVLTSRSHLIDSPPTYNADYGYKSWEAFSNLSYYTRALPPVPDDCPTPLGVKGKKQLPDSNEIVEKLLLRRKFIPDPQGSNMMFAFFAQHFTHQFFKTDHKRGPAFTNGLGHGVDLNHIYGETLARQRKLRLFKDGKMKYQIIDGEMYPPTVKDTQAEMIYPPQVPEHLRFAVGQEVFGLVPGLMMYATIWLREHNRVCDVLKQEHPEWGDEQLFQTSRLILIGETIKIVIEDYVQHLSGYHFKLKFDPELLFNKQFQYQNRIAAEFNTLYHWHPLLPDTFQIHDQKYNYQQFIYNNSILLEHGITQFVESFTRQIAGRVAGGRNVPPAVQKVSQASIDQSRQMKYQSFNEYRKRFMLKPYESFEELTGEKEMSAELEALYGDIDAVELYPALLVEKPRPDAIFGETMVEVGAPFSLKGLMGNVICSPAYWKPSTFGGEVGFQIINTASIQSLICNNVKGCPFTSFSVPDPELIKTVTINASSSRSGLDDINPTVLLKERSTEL
Method in brief: as §1

[5] = target: T4, human amnionic whole cell cyclooxygenase-2 (WISH cells) (Homo sapiens, UniProt P35354); experiment: IL-1β induced PGE2 production in WISH cells; assay type: cell-based; conditions: for IC50: read-out: Wish IC50 (parenthetical value); for inhibition at 0.01 µM / inhibition at 0.1 µM: read-out: Wish % Inhib. at Dose
T4 construct: endogenous in cells; host or cells: human amnionic WISH cells, induced with IL-1beta
T4 sequence (P35354 18-604): T3 sequence (P35354 18-604)
Method in brief: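 Confluent (80%) WISH cells were stimulated with 5 ng/ml IL-1β in serum-free Neuman-Tytell medium, with or without test compound in DMSO (0.01% v/v). PGE2 in the culture medium was measured by EIA against standards prepared in the same medium, read by optical density.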

[6] = read-out: RHUCX2 % Inh. at Dose
[7] = read-out: HWPX % Inhib. at Dose

SMILES	melting point	inhibition at 100 µM [2]	IC50 [5]	IC50 [3]	inhibition at 0.1 µM [4, 6]	inhibition at 1 µM [4, 6]	other results
CC(C)CCc1c(-c2ccc(S(C)(=O)=O)cc2)cnn(-c2ccc(F)cc2)c1=O [Example 378]	–	–	–	–	–	–	CAP % Inhib. @ 3 mpk [1]: 59%
C[C@@H](CO)COc1c(-c2ccc(S(N)(=O)=O)cc2)cnn(-c2ccc(F)c(F)c2)c1=O [Example 464, (S)-2-(3,4-Difluorophenyl)-4-(3-hydroxy-2-methyl-1-propoxy)-5-[4-(aminosulfonyl)phenyl]-3(2H)-pyridazinone]	–	–	–	–	–	–	inhibition in vivo at 3 mg/kg [1]: 70%
CC(C)COc1c(-c2ccc(S(C)(=O)=O)c(F)c2)cnn(-c2ccc(F)c(Cl)c2)c1=O [Example 205, 2-(3-Chloro-4-fluorophenyl)-4-(2-methylpropoxy)-5-[3-fluoro-4-(methylsulfonyl)phenyl]-3(2H)-pyridazinone]	142 to 144 °C	–	–	–	–	–	inhibition in vivo at 3 mg/kg [1]: 54%
Cc1cc(-c2c(-c3ccc(S(N)(=O)=O)cc3)cnn(-c3cccc(Cl)c3)c2=O)ccc1F [Example 391, 2-(3-Chlorophenyl)-4-(4-fluoro-3-methylphenyl)-5-[4-(aminosulfonpl)phenyl]-3(2h)-pyridazinone]	–	–	–	–	–	–	CAP % Inhib. @ 3 mpk [1]: 61%
C=C(F)C(F)(F)n1ncc(-c2ccc(S(N)(=O)=O)cc2)c(-c2ccc(F)cc2)c1=O [Example 142, 2-(1,1,2-Trifluoro-2-propenyl)-4-(4-fluorophenyl)-5-[4-(aminosulfonyl)phenyl]-3(2H)-pyridazinone]	230 to 232 °C	–	88 nM	7.53 µM	45%	96%	inhibition at 1 µM [2]: 53%; inhibition at 10 µM [2]: 80%; inhibition at 0.01 µM [4, 6]: 32%
CS(=O)(=O)c1ccc(-c2cnn(-c3ccc(F)cc3)c(=O)c2C2CCCCC2)cc1 [Example 228, 2-(4-Fluorophenyl)-4-cyclohexyl-5-[4-(methylsulfonyl)phenyl]-3(2H)-pyridazinone]	231 to 233 °C	7%	86 nM	19.6 µM	–	–	IC50 [4]: 209 nM
NS(=O)(=O)c1ccc(-c2cnn(CC(F)=C(F)F)c(=O)c2-c2ccc(F)cc2)cc1 [Example 141, 2-(2,3,3-Trifluoro-2-propen-1-yl)-4-(4-fluorophenyl)-5-[4-(aminosulfonyl)phenyl]-3(2H)-pyridazinone]	173 to 175 °C	55%	4 nM	–	95%	99%	inhibition at 10 µM [2]: 62%; inhibition at 0.3 µM [3, 7]: 56%
CC(C)(O)COc1c(-c2ccc(S(N)(=O)=O)cc2)cnn(-c2ccc(F)c(F)c2)c1=O [Example 459]	–	–	–	–	–	–	CAP % Inhib. @ 3 mpk [1]: 45%
CC(c1ccc(F)c(F)c1F)n1ncc(-c2ccc(S(N)(=O)=O)cc2)c(-c2ccc(F)cc2)c1=O (stereo not drawn) [Example 146, 2-(α-Methyl-2,3,4-trifluorobenzyl)-4-(4-fluorophenyl)-5-[4-(aminosulfonyl)phenyl]-3(2H)-pyridazinone]	192 to 194 °C	–	44 nM	–	73%	100%	inhibition at 1 µM [2]: 53%; inhibition at 10 µM [2]: 82%; inhibition at 3 µM ([3]; 3 μM, read-out: HWPX % Inhib. at Dose): 46%; inhibition at 10 µM [3, 7]: 84%
CS(=O)(=O)c1ccc(-c2cnn(Cc3ccccc3)c(=O)c2-c2ccc(Cl)cc2)cc1 [Example 53, 2-Benzyl-4-(4-chlorophenyl)-5-[4-(methylsulfonyl)phenyl]-3(2H)-pyridazinone]	157 to 159 °C	10%	–	–	77%	99%	inhibition at 1 µM ([3]; 1 μM, read-out: HWPX % Inhib. at Dose): 8%; inhibition at 10 µM [3, 7]: 78%; inhibition at 0.01 µM [5]: 44%; inhibition at 0.1 µM [5]: 90%
C/C(=C\Cn1ncc(-c2ccc(S(N)(=O)=O)cc2)c(-c2ccc(F)cc2)c1=O)C(F)(F)F [Example 154]	155 to 157 °C	–	–	–	–	–	IC50 [2]: 126 nM; inhibition at 0.1 µM ([3]; 0.1 μM, read-out: HWPX % Inhib. at Dose): 48%; inhibition at 0.3 µM [3, 7]: 81%; IC50 [4]: 18 nM; inhibition at 0.01 µM [5]: 69%; inhibition at 0.1 µM [5]: 100%

Continued, in another order:

melting point	inhibition at 100 µM [2]	IC50 [5]	IC50 [3]	inhibition at 0.1 µM [4, 6]	inhibition at 1 µM [4, 6]	SMILES	other results
144 to 145 °C	0%	75 nM	–	–	–	CC(C)(C)COc1c(-c2ccc(S(N)(=O)=O)c(F)c2)cnn(CC(F)(F)F)c1=O [Example 381, 2-(2,2,2-Trifluoroethyl)-4-(2,2-dimethylpropoxy)-5-[3-fluoro-4-(aminosulfonyl)phenyl]-3(2H)-pyridazinone]	inhibition at 30 µM ([3]; 30 μM, read-out: HWPX % Inhib. at Dose): 31%; inhibition at 100 µM ([3]; 100 μM, read-out: HWPX % Inhib. at Dose): 91%; IC50 [4]: 188 nM
151 to 153 °C	0%	4 nM	14.9 µM	83%	100%	CC(C)(C)COc1c(-c2ccc(S(C)(=O)=O)cc2)cnn(-c2cccc(Cl)c2)c1=O [Example 338, 2-(3-Chlorophenyl)-4-(2,2-dimethylpropoxy)-5-[4-(methylsulfonyl)phenyl]-3(2H)-pyridazinone]	–
222 to 224 °C	8%	20 nM	8.4 µM	–	–	Cc1ccc(-c2c(-c3ccc(S(C)(=O)=O)cc3)cnn(-c3cccc(Cl)c3)c2=O)cc1 [Example 370, 2-(3-Chlorophenyl)-4-(4-methylphenyl)-5-[4-(methylsulfonyl)phenyl]-3(2H)-pyridazinone]	IC50 [4]: 48 nM
207 to 208 °C	–	20 nM	7.76 µM	51%	71%	Cc1cc(-c2c(-c3ccc(S(C)(=O)=O)cc3)cnn(-c3ccc(F)c(Cl)c3)c2=O)ccc1F [Example 247, 2-(3-Chloro-4-fluorophenyl)-4-(4-fluoro-3-mehylphenyl)-5-[4-(methylsulfonyl)phenyl]-3(2H)-pyridazinone]	inhibition at 1 µM [2]: 55%; inhibition at 10 µM [2]: 72%; inhibition at 10 µM ([4]; 10 μM, read-out: RHUCX2 % Inh. at Dose): 99%
208 to 210 °C	–	17 nM	0.32 µM	62%	96%	NS(=O)(=O)c1ccc(-c2cnn(-c3ccc(F)c(Cl)c3)c(=O)c2-c2ccc(F)cc2)cc1 [Example 401, 2-(3-Chloro-4-fluorophenyl)-4-(4-fluorophenyl)-5-[4-(aminosulfonyl)phenyl]-3(2H)-pyridazinone]	IC50 [2]: 753 nM; inhibition at 0.01 µM [4, 6]: 48%
